Patent US20230365592A1 (Agios Pharmaceuticals, Inc., priority 2022, published 2023)

Target: T1, human PAH with the R408W mutation (Homo sapiens, UniProt P00439, R408W)
T1 construct: expressed in transfected cells
T1 sequence (P00439 1-452 R408W): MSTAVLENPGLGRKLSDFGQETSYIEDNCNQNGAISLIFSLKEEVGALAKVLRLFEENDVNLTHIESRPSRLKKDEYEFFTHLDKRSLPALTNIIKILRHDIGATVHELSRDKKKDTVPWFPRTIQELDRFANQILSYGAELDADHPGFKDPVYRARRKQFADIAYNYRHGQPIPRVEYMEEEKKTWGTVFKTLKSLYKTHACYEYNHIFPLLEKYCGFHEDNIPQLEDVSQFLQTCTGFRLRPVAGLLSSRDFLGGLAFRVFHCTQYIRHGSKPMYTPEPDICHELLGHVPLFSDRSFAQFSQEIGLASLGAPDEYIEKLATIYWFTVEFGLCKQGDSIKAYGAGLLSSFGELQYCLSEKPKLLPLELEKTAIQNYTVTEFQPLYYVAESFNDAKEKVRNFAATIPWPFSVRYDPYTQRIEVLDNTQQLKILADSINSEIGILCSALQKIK
Experiment: Cell Based Phenylalanine Flux Assay;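 note: after compound treatment, cells received sepiapterin plus isotope-labelled Phenylalanine for 4 hours, then labelled Tyrosine in the medium was quantified, 10-point 2-fold dilution series run in duplicate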
Conditions: A375 cells expressing human R408W PAH; 24 hrs compound incubation; 13C-Tyrosine by LC-MS; average where tested multiple times; read-out: AC50

AC50 [µM] | Structure (SMILES)
< 0.5 | O=C(c1nnc(-c2cnccn2)o1)N1CCc2[nH]cnc2[C@H]1c1cc2c(C(F)(F)F)cccn2n1 [Example 1300, (S)-(5-(pyrazin-2-yl)-1,3,4-oxadiazol-2-yl)(4-(4-(trifluoromethyl)pyrazolo[1,5-a]pyridin-2-yl)-6,7-dihydro-1H-imidazo[4,5-c]pyridin-5(4H)-yl)methanone]
> 5 | O=C(c1nnc(-c2cnccn2)o1)N1CCc2[nH]cnc2[C@@H]1c1cc2c(C(F)(F)F)cccn2n1 [Example 1301, (R)-(5-(pyrazin-2-yl)-1,3,4-oxadiazol-2-yl)(4-(4-(trifluoromethyl)pyrazolo[1,5-a]pyridin-2-yl)-6,7-dihydro-1H-imidazo[4,5-c]pyridin-5(4H)-yl)methanone]
< 0.5 | O=C(c1nnc(-c2cccnc2)o1)N1CCc2[nH]cnc2[C@H]1c1cc2c(C(F)(F)F)cccn2n1 [Example 1302, (S)-(5-(pyridin-3-yl)-1,3,4-oxadiazol-2-yl)(4-(4-(trifluoromethyl)pyrazolo[1,5-a]pyridin-2-yl)-6,7-dihydro-1H-imidazo[4,5-c]pyridin-5(4H)-yl)methanone]
1 to 5 | O=C(c1nnc(-c2cccnc2)o1)N1CCc2[nH]cnc2[C@@H]1c1cc2c(C(F)(F)F)cccn2n1 [Example 1303, (R)-(5-(pyridin-3-yl)-1,3,4-oxadiazol-2-yl)(4-(4-(trifluoromethyl)pyrazolo[1,5-a]pyridin-2-yl)-6,7-dihydro-1H-imidazo[4,5-c]pyridin-5(4H)-yl)methanone]
< 0.5 | Cc1ncccc1-c1nnc(C(=O)N2CCc3[nH]cnc3[C@H]2c2cc3c(C(F)(F)F)cccn3n2)o1 [Example 1304, (S)-(5-(2-methylpyridin-3-yl)-1,3,4-oxadiazol-2-yl)(4-(4-(trifluoromethyl)pyrazolo[1,5-a]pyridin-2-yl)-6,7-dihydro-1H-imidazo[4,5-c]pyridin-5(4H)-yl)methanone]
< 0.5 | O=C(c1nnc(-c2cccnc2)o1)N1CCc2[nH]cnc2[C@H]1c1cc2cccc(Cl)n2n1 [Example 1306, (S)-(4-(7-chloropyrazolo[1,5-a]pyridin-2-yl)-6,7-dihydro-1H-imidazo[4,5-c]pyridin-5(4H)-yl)(5-(pyridin-3-yl)-1,3,4-oxadiazol-2-yl)methanone]
1 to 5 | O=C(c1nnc(-c2cccnc2)o1)N1CCc2[nH]cnc2[C@@H]1c1cc2cccc(Cl)n2n1 [Example 1307, (R)-(4-(7-chloropyrazolo[1,5-a]pyridin-2-yl)-6,7-dihydro-1H-imidazo[4,5-c]pyridin-5(4H)-yl)(5-(pyridin-3-yl)-1,3,4-oxadiazol-2-yl)methanone]
< 0.5 | Cc1cccc2cc([C@@H]3c4nc[nH]c4CCN3C(=O)c3nnc(-c4cccnc4)o3)nn12 [Example 1308, (S)-(4-(7-methylpyrazolo[1,5-a]pyridin-2-yl)-6,7-dihydro-1H-imidazo[4,5-c]pyridin-5(4H)-yl)(5-(pyridin-3-yl)-1,3,4-oxadiazol-2-yl)methanone]
1 to 5 | Cc1cccc2cc([C@H]3c4nc[nH]c4CCN3C(=O)c3nnc(-c4cccnc4)o3)nn12 [Example 1309, (R)-(4-(7-methylpyrazolo[1,5-a]pyridin-2-yl)-6,7-dihydro-1H-imidazo[4,5-c]pyridin-5(4H)-yl)(5-(pyridin-3-yl)-1,3,4-oxadiazol-2-yl)methanone]
1 to 5 | Cc1cccn2nc([C@H]3c4nc[nH]c4CCN3C(=O)c3nnc(-c4ncccn4)o3)cc12 [Example 1310, (R)-(4-(4-methylpyrazolo[1,5-a]pyridin-2-yl)-6,7-dihydro-1H-imidazo[4,5-c]pyridin-5(4H)-yl)(5-(pyrimidin-2-yl)-1,3,4-oxadiazol-2-yl)methanone]
0.5 to 1 | Cc1cccn2nc([C@@H]3c4nc[nH]c4CCN3C(=O)c3nnc(-c4ncccn4)o3)cc12 [Example 1311, (S)-(4-(4-methylpyrazolo[1,5-a]pyridin-2-yl)-6,7-dihydro-1H-imidazo[4,5-c]pyridin-5(4H)-yl)(5-(pyrimidin-2-yl)-1,3,4-oxadiazol-2-yl)methanone]
1 to 5 | O=C(c1nnc(-c2ncccn2)o1)N1CCc2[nH]cnc2[C@@H]1c1cc2c(F)cccn2n1 [Example 1312, (R)-(4-(4-fluoropyrazolo[1,5-a]pyridin-2-yl)-6,7-dihydro-1H-imidazo[4,5-c]pyridin-5(4H)-yl)(5-(pyrimidin-2-yl)-1,3,4-oxadiazol-2-yl)methanone]

The next lines start with the compound.

Structure (SMILES) | AC50 [µM]
CC1(c2nnc(C(=O)N3CCc4[nH]cnc4[C@H]3c3cc4ccccn4n3)o2)CC1 [Example 1284, (S)-(5-(1-methylcyclopropyl)-1,3,4-oxadiazol-2-yl)(4-(pyrazolo[1,5-a]pyridin-2-yl)-6,7-dihydro-1H-imidazo[4,5-c]pyridin-5(4H)-yl)methanone] | < 0.5
CC1(c2nnc(C(=O)N3CCc4[nH]cnc4[C@@H]3c3cc4ccccn4n3)o2)CC1 [Example 1285, (R)-(5-(1-methylcyclopropyl)-1,3,4-oxadiazol-2-yl)(4-(pyrazolo[1,5-a]pyridin-2-yl)-6,7-dihydro-1H-imidazo[4,5-c]pyridin-5(4H)-yl)methanone] | 1 to 5
Cc1cccn2nc([C@@H]3c4nc[nH]c4CCN3C(=O)c3cnn4ccccc34)cc12 [Example 1286, (S)-(4-(4-methylpyrazolo[1,5-a]pyridin-2-yl)-6,7-dihydro-1H-imidazo[4,5-c]pyridin-5(4H)-yl)(pyrazolo[1,5-a]pyridin-3-yl)methanone] | < 0.5
Cc1cccn2nc([C@H]3c4nc[nH]c4CCN3C(=O)c3cnn4ccccc34)cc12 [Example 1287, (R)-(4-(4-methylpyrazolo[1,5-a]pyridin-2-yl)-6,7-dihydro-1H-imidazo[4,5-c]pyridin-5(4H)-yl)(pyrazolo[1,5-a]pyridin-3-yl)methanone] | 0.5 to 1
O=C(c1cnn2ccccc12)N1CCc2[nH]cnc2[C@@H]1c1cc2c(F)cccn2n1 [Example 1288, (R)-(4-(4-fluoropyrazolo[1,5-a]pyridin-2-yl)-6,7-dihydro-1H-imidazo[4,5-c]pyridin-5(4H)-yl)(pyrazolo[1,5-a]pyridin-3-yl)methanone] | 0.5 to 1
O=C(c1cnn2ccccc12)N1CCc2[nH]cnc2[C@H]1c1cc2c(F)cccn2n1 [Example 1289, (S)-(4-(4-fluoropyrazolo[1,5-a]pyridin-2-yl)-6,7-dihydro-1H-imidazo[4,5-c]pyridin-5(4H)-yl)(pyrazolo[1,5-a]pyridin-3-yl)methanone] | < 0.5
c1ccc(-c2nnc(N3CCc4[nH]cnc4[C@@H]3c3cc4ccccn4n3)o2)nc1 [Example 1290, (R)-2-(4-(pyrazolo[1,5-a]pyridin-2-yl)-6,7-dihydro-1H-imidazo[4,5-c]pyridin-5(4H)-yl)-5-(pyridin-2-yl)-1,3,4-oxadiazole] | 1 to 5
c1ccc(-c2nnc(N3CCc4[nH]cnc4[C@H]3c3cc4ccccn4n3)o2)nc1 [Example 1291, (S)-2-(4-(pyrazolo[1,5-a]pyridin-2-yl)-6,7-dihydro-1H-imidazo[4,5-c]pyridin-5(4H)-yl)-5-(pyridin-2-yl)-1,3,4-oxadiazole] | 0.5 to 1
O=C(c1nnc(-c2cccnc2)o1)N1CCc2[nH]cnc2[C@H]1c1cc2c(Cl)cccn2n1 [Example 1292, (S)-(4-(4-chloropyrazolo[1,5-a]pyridin-2-yl)-6,7-dihydro-1H-imidazo[4,5-c]pyridin-5(4H)-yl)(5-(pyridin-3-yl)-1,3,4-oxadiazol-2-yl)methanone] | < 0.5
O=C(c1nnc(-c2cccnc2)o1)N1CCc2[nH]cnc2[C@@H]1c1cc2c(Cl)cccn2n1 [Example 1293, (R)-(4-(4-chloropyrazolo[1,5-a]pyridin-2-yl)-6,7-dihydro-1H-imidazo[4,5-c]pyridin-5(4H)-yl)(5-(pyridin-3-yl)-1,3,4-oxadiazol-2-yl)methanone] | 1 to 5
O=C(c1nnc(-c2ncccc2F)o1)N1CCc2[nH]cnc2[C@@H]1c1cc2c(Cl)cccn2n1 [Example 1294, (R)-(4-(4-chloropyrazolo[1,5-a]pyridin-2-yl)-6,7-dihydro-1H-imidazo[4,5-c]pyridin-5(4H)-yl)(5-(3-fluoropyridin-2-yl)-1,3,4-oxadiazol-2-yl)methanone] | 1 to 5
O=C(c1nnc(-c2ncccc2F)o1)N1CCc2[nH]cnc2[C@H]1c1cc2c(Cl)cccn2n1 [Example 1295, (S)-(4-(4-chloropyrazolo[1,5-a]pyridin-2-yl)-6,7-dihydro-1H-imidazo[4,5-c]pyridin-5(4H)-yl)(5-(3-fluoropyridin-2-yl)-1,3,4-oxadiazol-2-yl)methanone] | < 0.5
CC1(c2nnc(C(=O)N3CCc4[nH]cnc4[C@H]3c3cc4cccc(Cl)n4n3)o2)CC1 [Example 1296, (S)-(4-(7-chloropyrazolo[1,5-a]pyridin-2-yl)-6,7-dihydro-1H-imidazo[4,5-c]pyridin-5(4H)-yl)(5-(1-methylcyclopropyl)-1,3,4-oxadiazol-2-yl)methanone] | < 0.5
CC1(c2nnc(C(=O)N3CCc4[nH]cnc4[C@@H]3c3cc4cccc(Cl)n4n3)o2)CC1 [Example 1297, (R)-(4-(7-chloropyrazolo[1,5-a]pyridin-2-yl)-6,7-dihydro-1H-imidazo[4,5-c]pyridin-5(4H)-yl)(5-(1-methylcyclopropyl)-1,3,4-oxadiazol-2-yl)methanone] | 1 to 5
COc1ccc(-c2nnc(C(=O)N3CCc4[nH]cnc4[C@@H]3c3cc4c(Cl)cccn4n3)o2)nc1 [Example 1298, (R)-(4-(4-chloropyrazolo[1,5-a]pyridin-2-yl)-6,7-dihydro-1H-imidazo[4,5-c]pyridin-5(4H)-yl)(5-(5-methoxypyridin-2-yl)-1,3,4-oxadiazol-2-yl)methanone] | 1 to 5
